# Tested on: HCT116 cells
# Assay: ATPlite cell viability after drug treatment, HCT116 cells in cell-line or organoid culture media
# Assay type: cell-based
# Conditions: HCT-116; for drug response, colorectal cancer cell line compared with cells under Ex1 organoid culture conditions: FIG. 2; for drug responsiveness, colorectal cancer cell line compared with organoids cultured in Ex1 and Ex2: FIG. 25
# Experimental: Advanced DMEM/F12+++ (hereinafter referred to as “Ad/DF+++”) was used to produce colorectal cancer organoids. Ad/DF+++ was refrigerated at 4° C. until use, and was used in a cold state during cell washing. Ad/DF+++ medium containing the reagents shown in Table 1 below along with Ad/DF 1× (Gibco) was prepared.
# After preparing the Ad/DF+++ medium containing the above reagents, an appropriate amount of Matrigel (Corning #356231) was added so that the ratio between Matrigel and cells suspended in the Ad/DF+++ medium was 7:3. Then, the cells were plated on low attachment well plates at an appropriate density. The density and the type and number of well plates were determined according to the characteristics of each cell type. The medium was prepared according to the composition shown in Table 2 below, and the cells were cultured (expanded) until the required level was reached while the medium was replaced every 3 to 4 days.
# If the organoids were expanded as needed for the experiment, the medium was carefully removed, taking care not to touch the Matrigel. The cells were separated from the Matrigel by pipetting about 20 times with 1 ml of cold Ad/DF+++. The cells in 1 to 4 wells per 6-well plate were collected in one 50 ml tube. If cells are collected from more than 4 wells into one tube, the Metrigel may not be washed properly. For this reason, the cells were placed in several tubes. Thereafter, Ad/DF+++ was poured to 20 to 50 ml of each tube, followed by centrifugation at 400 g for 3 minutes at 4° C. The cells were dissociated with 1 to 2 mL of TrypLE™ Express Enzyme (Gibco, 1264-013), transferred to low-attachment 24 well plates, and then treated with 10 μM of Y-27632. Next, the cells were cultured in a CO2 incubator for 5 minutes at 37° C. After pipetting about 20 times, whether the cells would be dissociated into single cells was checked by microscopic observation. If the cells were not dissociated into single cells, the culture under CO2 and pipetting processes were repeated. After the single cells were transferred into 15-ml tubes, Ad/DF+++ was filled to 10 to 15 ml of each tube, followed by centrifugation at 400 g at 4° C. for 3 minutes. After suspending the pellet in Ad/DF+++, the cells were counted and diluted with medium according to the required number of cells.
# 12 hours after seeding in Experimental Example 1-2 above, the medium was changed with the medium shown in Table 3 below, followed by culturing to produce organoids.
# Four hours after the medium change, the cells were treated with oxaliplatin, 5-FU, Irinotecan, and folinic acid. Five days after drug treatment, intracellular ATP expression was determined using the ATPlite assay kit (PerkinElmer), and the data were expressed in terms of cell viability, IC50, and AUC.
# As the standard for confirming that cells are sensitive to the drug, the response of the cells to the drug was assumed to be 100%, and the luminescence value of surviving cells after drug treatment was analyzed and compared with the quantified drug response value.
# Based on the assumption that the factor that increases the resistance of the organoids to oxaliplatin is an activator or inhibitor that changes the phenotype, the organoids prepared by excluding some or all of activators and inhibitors as shown in Table 4 below were treated with oxaliplatin.
# In order to identify the factors that reduce the resistance to oxaliplatin of the Ex2 organoid, activators or inhibitors that change the phenotype were added one by one to the Ex2 organoid composition, thus producing organoids as shown in Table 8 below. Then, it was checked whether the produced organoids had increased resistance to oxaliplatin.
compound,measurement,value
Nc1nc(=O)c2c([nH]1)NCC(CNc1ccc(C(=O)N[C@@H](CCC(=O)O)C(=O)O)cc1)N2C=O (mixture of isomers) [folinic acid],"drug response, colorectal cancer cell line compared with cells under Ex1 organoid culture conditions",drug response results similar to those of the cells cultured under the organoids culture conditions
same,"drug responsiveness, colorectal cancer cell line compared with organoids cultured in Ex1 and Ex2",drug responses similar to the cells cultured in the organoid culture conditions
"O=c1[nH]cc(F)c(=O)[nH]1 [5-FU, 5-fluorouracil]","drug response, colorectal cancer cell line compared with cells under Ex1 organoid culture conditions",drug response results similar to those of the cells cultured under the organoids culture conditions
same,"drug responsiveness, colorectal cancer cell line compared with organoids cultured in Ex1 and Ex2",drug responses similar to the cells cultured in the organoid culture conditions
CCc1c2c(nc3ccc(OC(=O)N4CCC(N5CCCCC5)CC4)cc13)-c1cc3c(c(=O)n1C2)COC(=O)[C@]3(O)CC [irinotecan],"drug response, colorectal cancer cell line compared with cells under Ex1 organoid culture conditions",drug response results similar to those of the cells cultured under the organoids culture conditions
same,"drug responsiveness, colorectal cancer cell line compared with organoids cultured in Ex1 and Ex2",drug responses similar to the cells cultured in the organoid culture conditions

# Source: patent US20250102494A1, “COMPOSITION FOR PREDICTING OXALIPLATIN DRUG EFFICACY, AND USE THEREOF” (SAMSUNG LIFE PUBLIC WELFARE FOUNDATION, priority 2022, published 2025)
